Patent publication US20250332173A1, “COMPOUNDS AND METHODS FOR MODULATING NUCLEIC ACID SPLICING” (REMIX THERAPEUTICS INC., priority 2021, published 2025)
Like-named read-outs stand apart in the source and are kept apart here.

Columns and labels:
[1] = system: MYB; test: HiBiT protein abundance assay, MYB HiBiT K562 cell line; type: cell-based, human; settings: HiBiT K562 cell line, 24 hours, top dose 10 μM; read-out: Effect on protein abundance, MYB (IC50 category)
How it was run: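 Endogenous targets in K562 knock-in lines carried a HiBiT tag and were treated for 24 h at 37 °C with 10-point 3-fold dilutions (top 10 μM final, DMSO ≤0.25%). Abundance was read as lytic Nano-Glo HiBiT luminescence. IC50 came from a four-parameter logistic fit of normalized response.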

[2] = system: K562 (human chronic myelogenous leukemia) cells; test: Cell Titer Glo 2.0 cell viability assay; type: cell-based; settings: K562 cells, 72 hours, Cell Titer Glo 2.0, read-out: K562 GI50
[3] = system: HTT mRNA; test: RT-qPCR splicing assay, HTT canonical junction (CJ) and alternative junction (AJ) mRNA; type: cell-based, human; settings: Homo sapiens; for AC50: increase in HTT alternative junction (AJ) mRNA, read-out: HTT AJ AC50
How it was run: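 Following a 24-hour incubation of A673 or K562 cells with serially diluted compound (3-fold steps, highest final 10 uM), the lysates undergo cDNA synthesis plus qPCR. Canonical and alternative junctions are each quantified against PPIA, GAPDH or GUSB.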

[4] = decrease in HTT canonical junction (CJ) mRNA, RT-qPCR, read-out: HTT CJ IC50
[5] = Table 5 panel, canonical junction qPCR, compound concentration having 50% response in CJ decrease, read-out: HTT IC50 (decrease in CJ mRNA levels)

Row | IC50 [1] [nM] | GI50 ([2]; Homo sapiens, K562, 72 h) [nM] | IC50 [3, 4] [nM] | IC50 [3, 5] [nM] | GI50 [2] [nM] | SMILES | AC50 ([3]; RT-qPCR) [nM]
1 | 100 to 1000 | 1000 to 10000 | 100 to 1000 | 100 to 1000 |  | Cc1cn2nc(-c3ccc4c(=O)n(C5CCNCC5)cnc4c3)cc2c(C)n1 [Compound 298] | 100 to 1000
2 | > 10000 | > 10000 | > 10000 | > 10000 |  | CN1CCC(n2cnc3cc(-c4cn[nH]c4)ccc3c2=O)CC1 [Compound 299] | > 10000
3 | 100 to 1000 | 1000 to 10000 | 1000 to 10000 | 100 to 1000 |  | Cc1nc2c(F)cc(-c3ccc4c(=O)n(C5CCN(C)CC5)cnc4c3)cc2o1 [Compound 300] | 100 to 1000
4 | 1000 to 10000 | 1000 to 10000 | 1000 to 10000 | 1000 to 10000 |  | Cc1nc2c(F)cc(-c3ccc4c(=O)n(C5CCN(C)CC5)cnc4c3)cc2s1 [Compound 301] | 1000 to 10000
5 | 1000 to 10000 | 1000 to 10000 | 1000 to 10000 | 1000 to 10000 |  | Cc1cn2cc(-c3ccc4c(=O)n(C5CCN(C)CC5)cnc4c3)nc2c(C)n1 [Compound 302] | 1000 to 10000
6 | 1000 to 10000 | 1000 to 10000 | 1000 to 10000 | 1000 to 10000 |  | Cc1cn2nc(-c3ccc4c(=O)n(C5CCN(C)CC5)cnc4c3)cc2c(C)n1 [Compound 303] | 1000 to 10000
7 | 100 to 1000 | 100 to 1000 | 1000 to 10000 | 100 to 1000 |  | CC[C@@H]1C[C@H](n2ncc3cc(-c4cc(C)c5nc(C)cn5n4)ccc3c2=O)CCN1 [Compound 304] | 1000 to 10000
8 | 1000 to 10000 | 100 to 1000 | 1000 to 10000 | 1000 to 10000 |  | Cc1cn2cc(-c3ccc4c(=O)n(C5CCNCC5)cnc4c3)cc(C(F)(F)F)c2n1 [Compound 306] | 1000 to 10000
9 | 1000 to 10000 | 1000 to 10000 | 1000 to 10000 | 1000 to 10000 |  | Cc1cn2cc(-c3ccc4c(=O)n(C5CCN(C)CC5)cnc4c3)ncc2n1 [Compound 308] | 1000 to 10000
10 | 100 to 1000 | 1000 to 10000 | 100 to 1000 | 100 to 1000 |  | Cc1cn2nc(-c3ccc4c(=O)n(C5CCN(C)CC5)ccc4c3)cc(C)c2n1 [Compound 310] | 100 to 1000
11 | 1000 to 10000 | 1000 to 10000 | 1000 to 10000 | 1000 to 10000 |  | Cc1cc(-c2cnc3c(=O)n(C4CCNCC4)cnc3c2)cc2cn(C)nc12 [Compound 311] | 1000 to 10000
12 | < 100 | 100 to 1000 | < 100 | < 100 |  | Cc1cn2nc(-c3cc(F)c4c(=O)n(C5CCNC6(CC6)C5)ncc4c3)cc(C)c2n1 (centres unmarked) [Compound 312] | < 100
13 | 1000 to 10000 | 1000 to 10000 | 1000 to 10000 | 1000 to 10000 |  | Cn1cc2cc(-c3cc(F)c4c(=O)n(C5CCNCC5)cnc4c3)cc(F)c2n1 [Compound 314] | 1000 to 10000
14 | 100 to 1000 | 1000 to 10000 | 1000 to 10000 | 1000 to 10000 |  | Cn1cc2cc(-c3cc(F)c4c(=O)n(C5CCNCC5)cnc4c3)c(F)cc2n1 [Compound 315] | 1000 to 10000
15 | < 100 | 100 to 1000 | 100 to 1000 | 100 to 1000 |  | Cn1cc2cc(-c3cc(F)c4c(=O)n(C5CCNCC5)cnc4c3)cc(C#N)c2n1 [Compound 316] | 100 to 1000
16 | < 100 | 100 to 1000 | 100 to 1000 | 100 to 1000 |  | Cc1cn2cc(-c3cc(F)c4c(=O)n(C5CCNCC5)cnc4c3)cc(C)c2n1 [Compound 317] | 100 to 1000
17 | < 100 | 100 to 1000 | < 100 | < 100 |  | Cc1cn2nc(-c3cc(F)c4c(=O)n(C5CCNCC5)cnc4c3)cc2c(C)n1 [Compound 318] | < 100

Row | IC50 [1] [nM] | GI50 ([2]; Homo sapiens, K562, 72 h) [nM] | IC50 [3, 4] [nM] | IC50 [3, 5] [nM] | GI50 [2] [nM] | SMILES | AC50 ([3]; RT-qPCR) [nM]
18 | 100 to 1000 | 100 to 1000 | 1000 to 10000 | 1000 to 10000 |  | Cc1cn2cc(-c3cc(F)c4c(=O)n(C5CCNCC5)cnc4c3)nc2c(C)n1 [Compound 319] | 1000 to 10000
19 | > 10000 | > 10000 | > 10000 | > 10000 |  | COc1cc(-c2cc(F)c3c(=O)n(C4CCNCC4)cnc3c2)cnn1 [Compound 320] | > 10000
20 | < 100 | < 100 | < 100 | < 100 |  | Cc1cn2nc(-c3cc(F)c4c(=O)n(C5CCNCC5)ccc4c3)cc(C)c2n1 [Compound 322] | < 100
21 | 100 to 1000 | 100 to 1000 | 1000 to 10000 | 100 to 1000 |  | Cc1cn2cc(-c3cc(F)c4c(=O)n([C@H]5CCNC[C@H]5F)cnc4c3)cc(F)c2n1 [Compound 338] | 100 to 1000
22 | > 10000 | > 10000 | > 10000 | 1000 to 10000 |  | Cc1cn2cc(-c3cc(F)c4c(=O)n(C5CCNCC5(F)F)cnc4c3)cc(F)c2n1 (centres unmarked) [Compound 339] | 1000 to 10000
23 | < 100 | 100 to 1000 | 100 to 1000 | 100 to 1000 |  | Cc1cn2cc(-c3cc(F)c4c(=O)n(N5CCNCC5)cnc4c3)cc(F)c2n1 [Compound 340, 5-fluoro-7-{8-fluoro-2-methylimidazo[1,2-a]pyridin-6-yl}-3-(piperazin-1-yl)quinazolin-4-one] | 100 to 1000
24 | 100 to 1000 | < 100 | 100 to 1000 | < 100 |  | Cc1cn2cc(-c3cc(F)c4c(=O)n(C5=CCNCC5)cnc4c3)cc(F)c2n1 [Compound 342] | < 100
25 | > 10000 | > 10000 | < 100 | < 100 |  | Cc1cn2nc(-c3cc(N(C)C)c4c(=O)n(C5CCNC6(CC6)C5)cnc4c3)cc(C)c2n1 (centres unmarked) [Compound 345] | < 100
26 | < 100 | 100 to 1000 | 100 to 1000 | 100 to 1000 |  | Cc1cn2cc(-c3cc(F)c4c(=O)n([C@H]5CCN[C@H](C)C5)cnc4c3)cc(F)c2n1 [Compound 346, trans-5-fluoro-7-(8-fluoro-2-methylimidazo[1,2-a]pyridin-6-yl)-3-(2-methylpiperidin-4-yl)quina-zolin-4(3H)-one] | 100 to 1000
27 | 1000 to 10000 | > 10000 | > 10000 | > 10000 |  | Cc1cn2cc(-c3cc(F)c4c(=O)n([C@H]5CCNC[C@@H]5O)cnc4c3)cc(F)c2n1 [Compound 347, 5-fluoro-7-{8-fluoro-2-methylimidazo[1,2-a]pyridin-6-yl}-3-[(3S,4S)-3-hydroxypiperidin-4-yl]quinazolin-4-one] | > 10000
28 | > 10000 | > 10000 | > 10000 | > 10000 |  | Cc1cn2cc(-c3cc(F)c4c(=O)n([C@H]5CNCC[C@@H]5O)cnc4c3)cc(F)c2n1 [Compound 348, 5-fluoro-7-{8-fluoro-2-methylimidazo[1,2-a]pyridin-6-yl}-3-[(3S,4S)-4-hydroxypiperidin-3-yl]quinazolin-4-one] | > 10000
29 | 100 to 1000 | 1000 to 10000 | 100 to 1000 | 100 to 1000 |  | Cc1cn2nc(-c3ccc4c(=O)n([C@H]5CCNC6(CC6)C5)cnc4c3)cc(C)c2n1 [Compound 349, 3-[(7S)-4-azaspiro[2.5]octan-7-yl]-7-{2,8-dimethylimidazo[1,2-b]pyridazin-6-yl}quinazolin-4-one] | 100 to 1000
30 | < 100 |  | < 100 | < 100 | 100 to 1000 | Cc1cn2nc(-c3ccc4c(=O)n([C@@H]5CCNC6(CC6)C5)cnc4c3)cc(C)c2n1 [Compound 350, 3-[(7R)-4-azaspiro[2.5]octan-7-yl]-7-{2,8-dimethylimidazo[1,2-b]pyridazin-6-yl}quinazolin-4-one] | < 100
31 | < 100 | 100 to 1000 | < 100 | < 100 |  | Cc1cn2nc(-c3cc(F)c4c(=O)n(C5CCNC6(CC6)C5)cnc4c3)cc(C)c2n1 (centres unmarked) [Compound 351] | < 100
32 | > 10000 | > 10000 | > 10000 | > 10000 |  | Cc1cn2cc(-c3cc(F)c4c(=O)n(C5CNCCC5=O)cnc4c3)cc(F)c2n1 (centres unmarked) [Compound 352, 5-fluoro-7-{8-fluoro-2-methylimidazo[1,2-a]pyridin-6-yl}-3-(4-oxopiperidin-3-yl)quinazolin-4-one] | > 10000
33 | 100 to 1000 | 100 to 1000 | 100 to 1000 | 100 to 1000 |  | Cc1cn2cc(-c3cc(F)c4c(=O)n(C5CCCNCC5)cnc4c3)cc(F)c2n1 (centres unmarked) [Compound 353, 3-(azepan-4-yl)-5-fluoro-7-{8-fluoro-2-methylimidazo[1,2-a]pyridin-6-yl}quinazolin-4-one] | 100 to 1000
34 | 1000 to 10000 | 1000 to 10000 | 1000 to 10000 | 1000 to 10000 |  | Cc1ncc(-c2ccc3c(=O)n(C4CCNCC4)cnc3c2)cn1 [Compound 354, 7-(2-methylpyrimidin-5-yl)-3-(piperidin-4-yl)quinazolin-4(3H)-one] | 1000 to 10000
